PubChem BioAssay (NCI)
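In this assay, cells in 96-well plates receive the compound at five concentrations for 48 hours. Endpoints are linearly interpolated between the surrounding concentrations. GI50: concentration for 50% inhibition of growth. TGI is the concentration that stops growth completely.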

Columns and labels:
Experiment in all cases: DTP human tumour cell line panel, 48 h
[1] = test system: A549 NSCLC
[2] = test system: K-562 leukemia
[3] = test system: A498 renal
[4] = test system: HOP-92 NSCLC
[5] = test system: SF-539 CNS
[6] = test system: M14 melanoma
[7] = test system: EKVX NSCLC
[8] = test system: IGROV1 ovarian
[9] = test system: HT29 colon
[10] = test system: HCT-15 colon
[11] = test system: RPMI-8226 leukemia
[12] = test system: UACC-257 melanoma
[13] = test system: UO-31 renal
[14] = test system: OVCAR-4 ovarian
[15] = test system: NCI-H522 lung
[16] = test system: SN12C renal
[17] = test system: MALME-3M melanoma
[18] = test system: HOP-62 NSCLC
[19] = test system: MOLT-4 leukemia
[20] = test system: NCI/ADR-RES ovarian
[21] = test system: OVCAR-8 ovarian
[22] = test system: SNB-75 CNS
[23] = test system: RXF 393 renal
[24] = test system: SR leukemia
[25] = test system: UACC-62 melanoma
[26] = test system: SF-295 CNS
[27] = test system: DU-145 prostate
[28] = test system: OVCAR-5 ovarian
[29] = test system: HCC-2998 colon
[30] = test system: TK-10 renal
[31] = test system: NCI-H460 lung
[32] = test system: ACHN renal
[33] = test system: MDA-MB-435
[34] = test system: 786-0 renal
[35] = test system: SK-OV-3 ovarian
[36] = test system: HS 578T breast
[37] = test system: NCI-H23 lung
[38] = test system: PC-3 prostate
[39] = test system: T-47D breast
[40] = test system: SNB-19 CNS
[41] = test system: SK-MEL-28 melanoma
[42] = test system: HL-60(TB) leukemia
[43] = test system: CAKI-1 renal
[44] = test system: OVCAR-3 ovarian
[45] = test system: COLO 205 colon
[46] = test system: SF-268 CNS
[47] = test system: U251 CNS
[48] = test system: MDA-MB-231 breast
[49] = test system: SK-MEL-2 melanoma
[50] = test system: KM12 colon
[51] = test system: MDA-MB-468 breast
[52] = test system: SK-MEL-5 melanoma
[53] = test system: BT-549 breast
[54] = test system: SW-620 colon
[55] = test system: NCI-H226 lung
[56] = test system: MCF7 breast

Question: COc1ccc(-c2nc(Nc3ccccc3S(N)(=O)=O)c3ccccc3n2)cc1 was tested. Which GI50 [1] did it give?
Answer: The GI50 was 3.7 µM.

Question: What about the TGI [1] of the same compound?
Answer: The TGI was 30.9 µM.

Question: What about the GI50 [2] of the same compound?
Answer: Its GI50 is 4.49 µM.

Question: What about the TGI [2] of the same compound?
Answer: Its TGI is greater than 100 µM.

Question: What about the GI50 [3] of the same compound?
Answer: The GI50 was 10.5 µM.

Question: And the TGI [3]?
Answer: The TGI was 57.6 µM.

Question: And the GI50 [4]?
Answer: The GI50 was 7.68 µM.

Question: What about the TGI [4] of the same compound?
Answer: Its TGI is 71.3 µM.

Question: What about the GI50 [5] of the same compound?
Answer: The GI50 was 3.05 µM.

Question: What about the TGI [5] of the same compound?
Answer: Its TGI is 12.2 µM.

Question: And the GI50 [6]?
Answer: Its GI50 is 6.06 µM.

Question: What about the TGI [6] of the same compound?
Answer: The TGI was greater than 100 µM.

Question: What about the GI50 [7] of the same compound?
Answer: Its GI50 is 5.35 µM.

Question: And the TGI [7]?
Answer: Its TGI is 28.4 µM.

Question: And the GI50 [8]?
Answer: Its GI50 is 99.2 µM.

Question: And the TGI [8]?
Answer: Its TGI is greater than 100 µM.

Question: What about the GI50 [9] of the same compound?
Answer: Its GI50 is 4 µM.

Question: And the TGI [9]?
Answer: Its TGI is 32.2 µM.

Question: What about the GI50 [10] of the same compound?
Answer: The GI50 was 3.74 µM.

Question: And the TGI [10]?
Answer: Its TGI is 13.4 µM.

Question: What about the GI50 [11] of the same compound?
Answer: The GI50 was 4.35 µM.

Question: What about the TGI [11] of the same compound?
Answer: The TGI was greater than 100 µM.

Question: And the GI50 [12]?
Answer: The GI50 was greater than 100 µM.

Question: And the TGI [12]?
Answer: The TGI was greater than 100 µM.

Question: What about the GI50 [13] of the same compound?
Answer: Its GI50 is 9.42 µM.

Question: And the TGI [13]?
Answer: The TGI was 33.4 µM.

Question: What about the GI50 [14] of the same compound?
Answer: The GI50 was 28.9 µM.

Question: What about the TGI [14] of the same compound?
Answer: The TGI was greater than 100 µM.

Question: What about the GI50 [15] of the same compound?
Answer: The GI50 was 4.19 µM.

Question: What about the TGI [15] of the same compound?
Answer: The TGI was 25.7 µM.

Question: And the GI50 [16]?
Answer: The GI50 was greater than 100 µM.

Question: And the TGI [16]?
Answer: The TGI was greater than 100 µM.

Question: What about the GI50 [17] of the same compound?
Answer: The GI50 was 5.24 µM.

Question: And the TGI [17]?
Answer: Its TGI is 50.4 µM.

Question: What about the GI50 [18] of the same compound?
Answer: Its GI50 is 12.8 µM.

Question: And the TGI [18]?
Answer: The TGI was 45.4 µM.

Question: And the GI50 [19]?
Answer: The GI50 was 4.41 µM.

Question: And the TGI [19]?
Answer: The TGI was greater than 100 µM.

Question: And the GI50 [20]?
Answer: The GI50 was 3.19 µM.

Question: What about the TGI [20] of the same compound?
Answer: The TGI was 16.6 µM.

Question: What about the GI50 [21] of the same compound?
Answer: Its GI50 is 6.41 µM.

Question: What about the TGI [21] of the same compound?
Answer: The TGI was greater than 100 µM.

Question: And the GI50 [22]?
Answer: The GI50 was 2.32 µM.

Question: What about the TGI [22] of the same compound?
Answer: Its TGI is greater than 100 µM.

Question: And the GI50 [23]?
Answer: Its GI50 is 1.91 µM.

Question: And the TGI [23]?
Answer: Its TGI is 7.27 µM.

Question: And the GI50 [24]?
Answer: Its GI50 is 6.28 µM.

Question: And the TGI [24]?
Answer: Its TGI is greater than 100 µM.

Question: And the GI50 [25]?
Answer: The GI50 was 8.84 µM.

Question: What about the TGI [25] of the same compound?
Answer: The TGI was greater than 100 µM.

Question: What about the GI50 [26] of the same compound?
Answer: Its GI50 is 3 µM.

Question: What about the TGI [26] of the same compound?
Answer: Its TGI is 13.2 µM.

Question: What about the GI50 [27] of the same compound?
Answer: The GI50 was 4.67 µM.

Question: What about the TGI [27] of the same compound?
Answer: The TGI was 32.9 µM.

Question: And the GI50 [28]?
Answer: Its GI50 is 46.1 µM.

Question: What about the TGI [28] of the same compound?
Answer: Its TGI is greater than 100 µM.

Question: What about the GI50 [29] of the same compound?
Answer: Its GI50 is 3.46 µM.

Question: And the TGI [29]?
Answer: Its TGI is 13.7 µM.

Question: What about the GI50 [30] of the same compound?
Answer: Its GI50 is 21.7 µM.

Question: And the TGI [30]?
Answer: The TGI was 81.3 µM.

Question: What about the GI50 [31] of the same compound?
Answer: Its GI50 is 2.79 µM.

Question: What about the TGI [31] of the same compound?
Answer: Its TGI is 8.9 µM.

Question: What about the GI50 [32] of the same compound?
Answer: The GI50 was 6.39 µM.

Question: And the TGI [32]?
Answer: Its TGI is 28.3 µM.

Question: And the GI50 [33]?
Answer: The GI50 was 4.36 µM.

Question: And the TGI [33]?
Answer: Its TGI is greater than 100 µM.

Question: What about the GI50 [34] of the same compound?
Answer: Its GI50 is 3.75 µM.

Question: What about the TGI [34] of the same compound?
Answer: Its TGI is 14.6 µM.

Question: And the GI50 [35]?
Answer: The GI50 was 15.7 µM.

Question: And the TGI [35]?
Answer: The TGI was 71.3 µM.

Question: And the GI50 [36]?
Answer: The GI50 was 4.28 µM.

Question: What about the TGI [36] of the same compound?
Answer: Its TGI is greater than 100 µM.

Question: What about the GI50 [37] of the same compound?
Answer: Its GI50 is 2.4 µM.

Question: And the TGI [37]?
Answer: The TGI was 7.91 µM.

Question: What about the GI50 [38] of the same compound?
Answer: Its GI50 is 7.21 µM.

Question: What about the TGI [38] of the same compound?
Answer: Its TGI is greater than 100 µM.

Question: What about the GI50 [39] of the same compound?
Answer: The GI50 was 3.47 µM.

Question: What about the TGI [39] of the same compound?
Answer: The TGI was greater than 100 µM.

Question: And the GI50 [40]?
Answer: Its GI50 is 18 µM.

Question: What about the TGI [40] of the same compound?
Answer: The TGI was 63.3 µM.

Question: What about the GI50 [41] of the same compound?
Answer: Its GI50 is 7.31 µM.

Question: And the TGI [41]?
Answer: Its TGI is greater than 100 µM.

Question: And the GI50 [42]?
Answer: The GI50 was greater than 100 µM.

Question: And the TGI [42]?
Answer: The TGI was greater than 100 µM.

Question: And the GI50 [43]?
Answer: Its GI50 is 3.93 µM.

Question: And the TGI [43]?
Answer: The TGI was 42.5 µM.

Question: What about the GI50 [44] of the same compound?
Answer: The GI50 was 14.3 µM.

Question: What about the TGI [44] of the same compound?
Answer: Its TGI is greater than 100 µM.

Question: What about the GI50 [45] of the same compound?
Answer: Its GI50 is 5.29 µM.

Question: What about the TGI [45] of the same compound?
Answer: Its TGI is greater than 100 µM.

Question: And the GI50 [46]?
Answer: Its GI50 is 3.62 µM.

Question: What about the TGI [46] of the same compound?
Answer: Its TGI is 32.1 µM.

Question: And the GI50 [47]?
Answer: The GI50 was 3.31 µM.

Question: What about the TGI [47] of the same compound?
Answer: Its TGI is 14.2 µM.

Question: And the GI50 [48]?
Answer: Its GI50 is 2.14 µM.

Question: And the TGI [48]?
Answer: The TGI was 5.77 µM.

Question: And the GI50 [49]?
Answer: Its GI50 is greater than 100 µM.

Question: What about the TGI [49] of the same compound?
Answer: The TGI was greater than 100 µM.

Question: What about the GI50 [50] of the same compound?
Answer: The GI50 was 4.27 µM.

Question: And the TGI [50]?
Answer: The TGI was greater than 100 µM.

Question: And the GI50 [51]?
Answer: Its GI50 is 2.55 µM.

Question: And the TGI [51]?
Answer: The TGI was 8.01 µM.

Question: And the GI50 [52]?
Answer: The GI50 was 2.76 µM.

Question: What about the TGI [52] of the same compound?
Answer: Its TGI is 10.4 µM.

Question: What about the GI50 [53] of the same compound?
Answer: Its GI50 is 22.5 µM.

Question: What about the TGI [53] of the same compound?
Answer: The TGI was greater than 100 µM.

Question: And the GI50 [54]?
Answer: Its GI50 is 4.19 µM.

Question: What about the TGI [54] of the same compound?
Answer: The TGI was 97.9 µM.

Question: What about the GI50 [55] of the same compound?
Answer: The GI50 was 2.04 µM.

Question: And the TGI [55]?
Answer: The TGI was 7.13 µM.

Question: What about the GI50 [56] of the same compound?
Answer: Its GI50 is 2.55 µM.

Question: What about the TGI [56] of the same compound?
Answer: The TGI was 15.1 µM.
